The values that follow come from patent publication US11534452B2, “Nucleic acid molecules for reduction of PAPD5 or PAPD7 mRNA for treating hepatitis B infection” (HOFFMANN-LA ROCHE INC., priority 2016, dated 2022).

Each structure is given as a SMILES string.

In experiment [1] the test system is PAPD5 variant 1. Nature of the experiment: Y3H ULTImate YChemH screen. Type of experiment: binding, Human. Also on record: key to Confidence score: confidence score of A (scale A-D). Conditions: prey PAPD5 variant 1; for # of fragments: cDNA Human placenta library, probe 5 μM (HBX129653), 10 μM (HBX129654). The protocol:
(§1) The two compounds were provided by Roche to HYBRIGENICS SERVICES SAS and tested for permeability and toxicity. Compounds were then screened against HYBRIGENICS's cDNA Human placenta library (PLA). The screens were carried out according to the optimized cell-to-cell mating protocol developed for Hybrigenics ULTImate Y2H™ using at different compound concentration (Table 6).
(§2) Clones obtained from the screen were picked in 96-well format and clones positive for growth under selective conditions (HIS+) were evaluated in a dependency assay using spot assays. Only clones that were able to grow on selective medium in the presence of the tagged compound were being picked up, processed (cell lysis, PCR, gene sequencing) and mapped for protein alignment using Blast analysis.
(§3) Both proteins PAPD5 (variant 1: NP_001035374; variant 2: NP_001035375) and PAPD7 (XP_005248291) were identified by a numerous number of fragments in the Y3H screen for both compounds (DHQ and THP) as described in the Materials and Method section. The identified proteins were ranked with a confidence score of A (scale A-D) by HYBRIGENICS (Table 10).

In experiment [2] the test system is PAPD7. Nature of the experiment: Y3H ULTImate YChemH screen. Also on record: key to Confidence score: confidence score of A (scale A-D). Conditions: prey PAPD7; for # of fragments: cDNA Human placenta library, probe 5 μM (HBX129653), 10 μM (HBX129654); for Confidence score: ranked by HYBRIGENICS
Type of experiment: binding, Human. The protocol:
as §1, §2, §3

The test system of experiment [3] is PAPD5 variant 2. Nature of the experiment: Y3H ULTImate YChemH screen. Format: binding, Human. Also on record: key to Confidence score: confidence score of A (scale A-D). Conditions: prey PAPD5 variant 2; for # of fragments: cDNA Human placenta library, probe 5 μM (HBX129653), 10 μM (HBX129654). How it is done:
as §1, §2, §3

The target of experiment [4] is T1, PAPD5 (Homo sapiens, UniProt Q8NDF8).
T1 construct: full length proteins for PAPD5 and PAPD7 were synthesized and used for 1-by-1 validation; expressed in transfected cells; host or cells: diploid yeast (YHGX13 with the prey plasmid mated to YPT6AT with the DHFR hook)
T1 sequence (Q8NDF8 1-698 isoform Q8NDF8-5): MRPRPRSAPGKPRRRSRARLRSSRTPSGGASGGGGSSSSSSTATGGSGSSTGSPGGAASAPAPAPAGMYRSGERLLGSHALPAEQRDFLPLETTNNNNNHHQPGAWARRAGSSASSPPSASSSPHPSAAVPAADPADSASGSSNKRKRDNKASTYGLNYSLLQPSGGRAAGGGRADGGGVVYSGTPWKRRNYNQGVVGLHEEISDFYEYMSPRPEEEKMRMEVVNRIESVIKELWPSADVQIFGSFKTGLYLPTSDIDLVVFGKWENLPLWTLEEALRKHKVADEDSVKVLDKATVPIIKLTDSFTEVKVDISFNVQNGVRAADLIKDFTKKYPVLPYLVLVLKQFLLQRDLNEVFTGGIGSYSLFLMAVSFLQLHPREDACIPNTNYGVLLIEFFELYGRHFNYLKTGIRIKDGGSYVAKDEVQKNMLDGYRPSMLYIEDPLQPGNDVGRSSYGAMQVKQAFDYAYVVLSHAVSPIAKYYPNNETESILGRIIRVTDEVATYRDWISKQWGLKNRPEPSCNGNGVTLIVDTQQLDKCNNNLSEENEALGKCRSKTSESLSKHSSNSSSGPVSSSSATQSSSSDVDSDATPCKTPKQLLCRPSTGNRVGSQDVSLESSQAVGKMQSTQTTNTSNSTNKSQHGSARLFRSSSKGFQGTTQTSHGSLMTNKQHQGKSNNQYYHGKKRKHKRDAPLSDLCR
As to the kind of experiment: Y3H ULTImate YChemH 1-by-1 validation (prey fragments, full length proteins). Format: binding. Conditions: PAPD5 var1 full length; FIG. 2. How it is done:
(§4) In this validation step each one identified fragment prey and one chemical probe (HBX129653, HBX129654) is tested in a 1-by-1 experiment. The plasmids from 3 selected preys from the screening library were extracted from the yeast cells, amplified in E. coli and re-transformed into YHGX13 yeast cells. For each interaction, DO1, 1/10, 1/100 and 1/1000 of the diploid yeast culture expressing both hook and prey constructs were spotted on a selective medium without tryptophan, leucine and histidine and supplemented with the chemical probe and FK506. Interactions were tested in duplicate. One plate was used per chemical compound and concentration (DMSO, 5, 10 and 20 μM of HBX129653, 5, 10 and 20 μM of HBX129654, 5 μM of HBX24786 Trimethoprim (TMP) and 5 μM of HBX129634 (TMP-PEG5-OH)). Plates were incubated at 30° C. for 3 days.
(§5) The coding sequence of full-length PAPD5var1 (NM_001040284.2) and PAPD7varX1 (XM_005248234.2) were reconstituted from an N-terminal codon-optimized gene fragment (to remove high GC content) and commercially available clones of the C-terminal regions of the proteins and cloned in frame with the Gal4 Activation Domain (AD) into plasmid pP7 (AD-Prey), derived from the original pGADGH (Bartel et al., 1993 in Cellular interactions in development: A practical approach. ed. Hartley, D. A., Oxford University Press, Oxford, pp. 153-179). The constructs were checked by sequencing the entire inserts. For each prey, a mini-mating was carried out between YHGX13 (Y187 ade2-101::loxP-kanMX-loxP, mata) transformed with the prey plasmids and YPT6AT yeast cells (mata) transformed with the DHFR hook (Dihydrofolate reductase) to produce a diploid yeast culture. For each interaction, DO1, 1/10, 1/100 and 1/1000 of the diploid yeast culture expressing both hook and prey constructs were spotted on a selective medium without tryptophan, leucine and histidine and supplemented with the chemical probe and FK506. Interactions were tested in duplicate. One plate was used per chemical compound and concentration (DMSO, 5, 10 and 20 μM of HBX129653, 5, 10 and 20 μM of HBX129654, 5 μM of HBX24786 Trimethoprim (TMP) and 5 μM of HBX129634 (TMP-PEG5-OH)). Plates were incubated at 30° C. for 3 days.
(§6) In a first validation step three fragments identified in the first screen were selected for the 1-by-1 validation assay (as described in the Materials and Method section) and tested at three different concentrations ([…]) (Table 11).
(§7) In a second validation step, full length proteins for PAPD5 and PAPD7 were synthesized and used for 1-by-1 validation (as described in the Materials and Method section) with DHQ and THP (Table 12).

The subject of experiment [5] is PAPD5. Described as above. Format: binding, Human. The conditions noted are these: PAPD5 variant 1 and variant 2 fragments; already at the lowest tested concentration (5 of 5, 10, 20 μM); FIG. 1. The protocol:
as §4, §5, §6, §7

Experiment [6] concerns PAPD7. The experiment is described as above. Format: binding, Human. Conditions: PAPD7 fragment; already at the lowest tested concentration (5 of 5, 10, 20 μM); FIG. 1. The protocol: as §4, §5, §6, §7
Experiment [7] addresses T2, PAPD7 (Homo sapiens, UniProt Q5XG87).
T2 construct: full length proteins for PAPD5 and PAPD7 were synthesized and used for 1-by-1 validation; expressed in transfected cells; host or cells: diploid yeast (YHGX13 with the prey plasmid mated to YPT6AT with the DHFR hook)
The experiment is described as above. Conditions: PAPD7 full length; FIG. 2. Type of experiment: binding. How it is done:
as §4, §5, §6, §7

Experiment [8] addresses T1, PAPD5. As to the kind of experiment: Y3H ULTImate YChemH competition with free compound. Conditions: PAPD5 var1 fragment and full length; probe HBX129653 or HBX129654 1 μM; free compound 0-20 μM; FIG. 3-6. Format: binding. The protocol: (§8) The competition assays were performed on selective medium at 8 concentrations of the free compound (0, 0.25, 0.5, 1, 2, 5, 10 and 20 μM) and a consistent concentration for the tagged Y3H-compound (1 μM).

Experiment [9] concerns the target T2, PAPD7. As to the kind of experiment: Y3H ULTImate YChemH competition with free compound. Conditions: PAPD7 varX1 fragment and full length; probe HBX129653 or HBX129654 1 μM; free compound 0-20 μM; FIG. 3-6. Format: binding. How it is done: as §8

T2 sequence (Q5XG87 whole entry): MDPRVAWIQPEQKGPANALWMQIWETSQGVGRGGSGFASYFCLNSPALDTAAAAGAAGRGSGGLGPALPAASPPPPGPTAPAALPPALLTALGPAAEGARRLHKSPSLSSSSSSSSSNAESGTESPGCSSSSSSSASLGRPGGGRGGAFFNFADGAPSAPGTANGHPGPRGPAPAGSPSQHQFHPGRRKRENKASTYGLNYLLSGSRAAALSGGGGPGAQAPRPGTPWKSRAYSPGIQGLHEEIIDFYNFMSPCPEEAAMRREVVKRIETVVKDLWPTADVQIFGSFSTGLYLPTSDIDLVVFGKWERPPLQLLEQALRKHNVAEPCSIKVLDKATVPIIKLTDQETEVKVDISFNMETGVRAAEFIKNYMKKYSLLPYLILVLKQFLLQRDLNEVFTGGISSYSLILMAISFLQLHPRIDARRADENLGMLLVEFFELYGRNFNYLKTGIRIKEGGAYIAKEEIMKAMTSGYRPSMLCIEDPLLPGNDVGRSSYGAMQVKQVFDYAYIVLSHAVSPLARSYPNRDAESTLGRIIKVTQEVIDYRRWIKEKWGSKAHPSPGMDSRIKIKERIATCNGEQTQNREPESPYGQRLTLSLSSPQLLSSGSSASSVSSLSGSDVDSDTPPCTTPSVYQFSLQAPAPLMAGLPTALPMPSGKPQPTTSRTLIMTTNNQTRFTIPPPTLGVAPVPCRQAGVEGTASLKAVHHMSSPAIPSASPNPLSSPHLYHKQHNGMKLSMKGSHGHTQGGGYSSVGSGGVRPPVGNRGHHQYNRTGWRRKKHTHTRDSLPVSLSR

Consider `COc1cc2c(cc1OCCOCCOCCOCCOCCOCCOc1c(OC)cc(Cc3cnc(N)nc3N)cc1OC)C[C@@H](C(C)(C)C)n1cc(C(=O)O)c(=O)cc1-2` [HBX129653], for which the “# of fragments” value is given as 28 in [1], 12 in [2] and 1 in experiment [3]. In addition, the Confidence score result in experiment [1] (ranked by HYBRIGENICS) and in experiment [2] was “A” in each case.
As to `COc1cc(Cc2cnc(N)nc2N)cc(OC)c1OCCOCCOCCOCCOCCOCCOc1cc(N2CCc3nc(-c4ncccn4)ncc3[C@H]2C)cc(F)c1F` [HBX129654], the “# of fragments” value came to 5 in experiment [1], 24 in [2] and 49 in [3]. The Confidence score entry in experiment [2] and in [3] (ranked by HYBRIGENICS) was “A” in each case.
Consider `COCCCOc1cc2c(cc1Cl)-c1cc(=O)c(C(=O)O)cn1[C@H](C(C)C)C2` [MOL653], for which the “1-by-1 validation, interaction with full length protein” value in experiment [4] and in experiment [7] was “confirmed at the lowest tested concentration” each time. Also, the “1-by-1 validation of prey fragments as binders” value in [5] and in experiment [6] was “validated as specific binders” each time. The “competition of free compound with the chemical probe” value in [8] and in experiment [9] was “competition could be observed” each time.
As to `COc1cc(N2CCc3nc(-c4ncccn4)ncc3[C@H]2C)cc(F)c1F` [MOL654], the “1-by-1 validation, interaction with full length protein” value in experiment [4] and in experiment [7] was “confirmed at the lowest tested concentration” throughout. Also, the “1-by-1 validation of prey fragments as binders” value in [5] and in experiment [6] was “validated as specific binders” in each case. The “competition of free compound with the chemical probe” value in experiment [8] and in experiment [9] was “competition could be observed” each time.
